Measurements from PubChem BioAssay (NCI).
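Test compounds were applied to cells in 96-well plates for 48 hours at 5 doses. TGI is the concentration that stops growth completely.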

system: RPMI-8226 leukemia; test: NCI anticancer screen, dose series, 48 h

SMILES | TGI
CC(C)(C)C1CCC2(CC1)c1[nH]c3ccccc3c1C1(CCC(C(C)(C)C)CC1)c1[nH]c3ccccc3c12 (stereo not drawn) | > 100 µM
CC(=O)OC/C=C(/C=C/CNC1CCCCC1)OC(C)=O | 25.5 µM
O=C(N/N=C/c1ccco1)c1cc(I)cc(I)c1O | 43 µM
O=C(CSc1n[nH]c(=O)[nH]c1=O)NNC(=O)c1cccc2nc3ccccc3nc12 | > 100 µM
Nc1ccc(S(=O)(=O)Nc2nc3ccccc3nc2N2CCCCC2)cc1 | > 100 µM
COc1c(C)c2nc3ccccc3[nH]c2c2c(=O)ccnc12 | > 100 µM
CCOc1cc(-c2nc3ccccn3c2/N=C/c2cc(Br)ccc2O)ccc1O | > 100 µM
CC1(CNCc2ccccc2)CC(CCc2ccccc2)N(C(=O)c2ccc([N+](=O)[O-])cc2)C1Cc1ccc(O)cc1 (stereo not drawn) | > 100 µM
Cn1c2ccccc2n2c(=O)c3cc([N+](=O)[O-])ccc3c(C#N)c12 | > 100 µM
CCOC(=O)C(CC#Cc1ccc(C#CCC(NC(C)=O)C(=O)OCC)cc1)NC(C)=O (stereo not drawn) | > 100 µM
O=C1CSC(c2cccs2)N1c1nc2cc3sc(N4C(=O)CSC4c4cccs4)nc3cc2s1 (stereo not drawn) | > 50 µM
CCOC(=O)C1=C(OC(OCC)C(CC)[Se]c2ccccc2)CCCC1 (stereo not drawn) | 39.3 µM
NC(N)=NS(=O)(=O)c1ccc(NC(=O)c2ccc3nc4ccccc4c(Nc4ccc(S(=O)(=O)N=C(N)N)cc4)c3c2)cc1 | > 100 µM
Brc1cc2nn(-c3ccccc3)nc2c2nonc12 | > 100 µM
CCOC(=O)C(NC(=O)CC(C)C)(N1CCN(c2cc3c(cc2F)c(=O)c(C(=O)O)cn3C2CC2)CC1)C(F)(F)F (stereo not drawn) | 78.6 µM
c1ccc(/C(=N/Nc2ccccn2)c2ncccn2)cc1 | > 62.9 µM
COc1cc(I)c2c3c1OC1C34CCN(C)C(C2)C4=CC(I)C1(OC)OC (stereo not drawn) | 49.7 µM
NC(=O)C(=CNC(=S)c1ccncc1)C(N)=O | > 100 µM
COC(=O)C1=Nc2c(C)nn(-c3ccccc3)c2N=C(c2ccc([N+](=O)[O-])cc2)C1 | > 10 µM
COC(=O)c1ccc(C=Nc2ccc(S(N)(=O)=O)cc2)cc1 | 86.2 µM
CC(C)(C)c1cc(/C=C(\C#N)C(=O)NCCO)cc(C(C)(C)C)c1O | 35.6 µM
COC1(OC)CCCCC2c3cccc(OC(C)=O)c3C21OC(C)=O (stereo not drawn) | > 100 µM
COC(=O)Cc1c([C@H]2[C@H](CC(=O)OC)c3ccccc3N2C(C)=O)[nH]c2ccccc12 | > 100 µM

SMILES | TGI
COCC1OC(N2C(=O)NC(=O)[C@@H]3C=C4CCCCC4=C[C@@H]32)C(OC)C1OC (stereo partly drawn) | > 100 µM
CCCCc1ccc(Nc2nc3c(ncn3COCCO)c(=O)[nH]2)cc1 | > 100 µM
O=C(Nc1ccccc1C(=O)NCCCO)/C(=C/c1ccccc1O)NC(=O)c1ccccc1 | > 100 µM
CCOC(=O)/C(C#N)=N\Nc1ccc(-n2c(C)nc3ccccc3c2=O)cc1 | > 100 µM
OC1(c2ccc(Cl)cc2)c2ccc3ccccc3c2C2=N[C@H]3CCCC[C@@H]3N21 (stereo partly drawn) | 31 µM
O=C1NC2OC(CO)C(O)C(O1)C2O (stereo not drawn) | > 100 µM
NC(=O)c1cc2ccccc2o/c1=N/O | > 100 µM
Brc1cccc(N=NN2CCCC2)c1 | 58.8 µM
COC(=O)C1CC2(c3ccccc3)C(=O)c3ccccc3N2O1 (stereo not drawn) | 57 µM
COCc1nc2c(OC)cc(-c3nc4ccc(N5CCN(C)CC5)cc4[nH]3)c(OC)c2[nH]1 | > 100 µM
O=C(O)C(CO)NC(=O)n1c2ccccc2c2ccccc21 (stereo not drawn) | > 100 µM
Brc1ccc2c(-c3csc(-c4c[nH]c5ccc(Br)cc45)n3)c[nH]c2c1 | > 21.4 µM
Cc1c2ncccc2cc2oc3ccccc3c(=O)c12 | > 100 µM
O=C(Nc1cccc(O)c1)C(=O)C(C(=O)c1ccccc1F)C1OC(=O)c2ccccc21 (stereo not drawn) | 87.8 µM
Clc1ccc(OCc2nnc(CCCCCCCCc3nnc(COc4ccc(Cl)cc4)n3Nc3ccccc3)n2Nc2ccccc2)cc1 | 5.13 µM
COc1cc(CN2CCCCC2)cc2cc(C(=O)O)c(=O)oc12 | > 100 µM
Brc1ccc2c(-c3csc(-c4c[nH]c5cc(Br)ccc45)n3)c[nH]c2c1 | > 100 µM
O=c1c2ccccc2nc(Nc2cccc(Cl)c2)n1/N=C/C=C/c1ccccc1 | > 100 µM
C=CCOCCCCC(C(C)=O)C(=O)OC (stereo not drawn) | > 100 µM
Cc1nn(-c2cc(Cl)ccc2[N+](=O)[O-])c(C)c1Cl | > 100 µM
Cn1c([O-])nc(-n2cc[n+](C)c2)cc1=O | > 100 µM
O=C(CC1=NCCN1)c1ccccc1 | > 750 µM
CC1(C)C=C(S(=O)(=O)c2ccccc2)Oc2ccccc2O1 | > 100 µM

system: MDA-MB-435; test: NCI anticancer screen, dose series, 48 h

SMILES | TGI
CC(=O)OC/C=C(/C=C/CNC1CCCCC1)OC(C)=O | 30.4 µM
O=C(N/N=C/c1ccco1)c1cc(I)cc(I)c1O | > 50 µM
O=C(CSc1n[nH]c(=O)[nH]c1=O)NNC(=O)c1cccc2nc3ccccc3nc12 | > 100 µM
Nc1ccc(S(=O)(=O)Nc2nc3ccccc3nc2N2CCCCC2)cc1 | > 100 µM
COc1c(C)c2nc3ccccc3[nH]c2c2c(=O)ccnc12 | > 100 µM
CCOc1cc(-c2nc3ccccn3c2/N=C/c2cc(Br)ccc2O)ccc1O | > 100 µM
CC1(CNCc2ccccc2)CC(CCc2ccccc2)N(C(=O)c2ccc([N+](=O)[O-])cc2)C1Cc1ccc(O)cc1 (stereo not drawn) | 28.2 µM
Cn1c2ccccc2n2c(=O)c3cc([N+](=O)[O-])ccc3c(C#N)c12 | > 100 µM
CCOC(=O)C(CC#Cc1ccc(C#CCC(NC(C)=O)C(=O)OCC)cc1)NC(C)=O (stereo not drawn) | > 100 µM
O=C1CSC(c2cccs2)N1c1nc2cc3sc(N4C(=O)CSC4c4cccs4)nc3cc2s1 (stereo not drawn) | > 50 µM
NC(N)=NS(=O)(=O)c1ccc(NC(=O)c2ccc3nc4ccccc4c(Nc4ccc(S(=O)(=O)N=C(N)N)cc4)c3c2)cc1 | > 100 µM
Brc1cc2nn(-c3ccccc3)nc2c2nonc12 | > 100 µM
CCOC(=O)C(NC(=O)CC(C)C)(N1CCN(c2cc3c(cc2F)c(=O)c(C(=O)O)cn3C2CC2)CC1)C(F)(F)F (stereo not drawn) | 56.5 µM
c1ccc(/C(=N/Nc2ccccn2)c2ncccn2)cc1 | > 100 µM
COc1cc(I)c2c3c1OC1C34CCN(C)C(C2)C4=CC(I)C1(OC)OC (stereo not drawn) | 33.8 µM
NC(=O)C(=CNC(=S)c1ccncc1)C(N)=O | > 100 µM
COC(=O)C1=Nc2c(C)nn(-c3ccccc3)c2N=C(c2ccc([N+](=O)[O-])cc2)C1 | > 10 µM
COC(=O)c1ccc(C=Nc2ccc(S(N)(=O)=O)cc2)cc1 | > 100 µM
CC(C)(C)c1cc(/C=C(\C#N)C(=O)NCCO)cc(C(C)(C)C)c1O | 45 µM

SMILES | TGI
COC(=O)Cc1c([C@H]2[C@H](CC(=O)OC)c3ccccc3N2C(C)=O)[nH]c2ccccc12 | > 100 µM
COCC1OC(N2C(=O)NC(=O)[C@@H]3C=C4CCCCC4=C[C@@H]32)C(OC)C1OC (stereo partly drawn) | > 100 µM
CCCCc1ccc(Nc2nc3c(ncn3COCCO)c(=O)[nH]2)cc1 | > 100 µM
O=C(Nc1ccccc1C(=O)NCCCO)/C(=C/c1ccccc1O)NC(=O)c1ccccc1 | > 100 µM
CCOC(=O)/C(C#N)=N\Nc1ccc(-n2c(C)nc3ccccc3c2=O)cc1 | > 100 µM
OC1(c2ccc(Cl)cc2)c2ccc3ccccc3c2C2=N[C@H]3CCCC[C@@H]3N21 (stereo partly drawn) | > 100 µM
NC(=O)c1cc2ccccc2o/c1=N/O | > 100 µM
Brc1cccc(N=NN2CCCC2)c1 | > 100 µM
COCc1nc2c(OC)cc(-c3nc4ccc(N5CCN(C)CC5)cc4[nH]3)c(OC)c2[nH]1 | > 100 µM
Brc1ccc2c(-c3csc(-c4c[nH]c5ccc(Br)cc45)n3)c[nH]c2c1 | 17.7 µM
Cc1c2ncccc2cc2oc3ccccc3c(=O)c12 | > 100 µM
Clc1ccc(OCc2nnc(CCCCCCCCc3nnc(COc4ccc(Cl)cc4)n3Nc3ccccc3)n2Nc2ccccc2)cc1 | > 63.4 µM
COc1cc(CN2CCCCC2)cc2cc(C(=O)O)c(=O)oc12 | > 100 µM
Brc1ccc2c(-c3csc(-c4c[nH]c5cc(Br)ccc45)n3)c[nH]c2c1 | 17.5 µM
O=c1c2ccccc2nc(Nc2cccc(Cl)c2)n1/N=C/C=C/c1ccccc1 | > 100 µM
Cc1nn(-c2cc(Cl)ccc2[N+](=O)[O-])c(C)c1Cl | > 100 µM
Cn1c([O-])nc(-n2cc[n+](C)c2)cc1=O | > 100 µM
CC1(C)C=C(S(=O)(=O)c2ccccc2)Oc2ccccc2O1 | 48 µM

system: SNB-78 CNS; test: NCI anticancer screen, dose series, 48 h

SMILES | TGI
CC(C)(C)C1CCC2(CC1)c1[nH]c3ccccc3c1C1(CCC(C(C)(C)C)CC1)c1[nH]c3ccccc3c12 (stereo not drawn) | > 100 µM
COc1c(Br)cc(CC(N)=O)c(O)c1Br | > 100 µM
CCOC(=O)C1=C(OC(OCC)C(CC)[Se]c2ccccc2)CCCC1 (stereo not drawn) | > 100 µM
COC1(OC)CCCCC2c3cccc(OC(C)=O)c3C21OC(C)=O (stereo not drawn) | > 100 µM
O=C1NC2OC(CO)C(O)C(O1)C2O (stereo not drawn) | > 100 µM
COC(=O)C1CC2(c3ccccc3)C(=O)c3ccccc3N2O1 (stereo not drawn) | > 100 µM
O=C(Nc1cccc(O)c1)C(=O)C(C(=O)c1ccccc1F)C1OC(=O)c2ccccc21 (stereo not drawn) | 92.9 µM
C=CCOCCCCC(C(C)=O)C(=O)OC (stereo not drawn) | > 100 µM
O=C(CC1=NCCN1)c1ccccc1 | > 750 µM

system: HS 578T breast; test: NCI anticancer screen, dose series, 48 h

SMILES | TGI
CC(=O)OC/C=C(/C=C/CNC1CCCCC1)OC(C)=O | 80.7 µM
O=C(N/N=C/c1ccco1)c1cc(I)cc(I)c1O | > 50 µM
O=C(CSc1n[nH]c(=O)[nH]c1=O)NNC(=O)c1cccc2nc3ccccc3nc12 | > 100 µM
Nc1ccc(S(=O)(=O)Nc2nc3ccccc3nc2N2CCCCC2)cc1 | > 100 µM
COc1c(C)c2nc3ccccc3[nH]c2c2c(=O)ccnc12 | 78.7 µM
CCOc1cc(-c2nc3ccccn3c2/N=C/c2cc(Br)ccc2O)ccc1O | > 100 µM
